Data reported in PubChem BioAssay (NCI).
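Cultured in 96-well plates, cells were exposed to test compound for 48 hours across five concentrations. Abbreviation: GI50, concentration required for 50% inhibition of growth. TGI denotes the concentration required for complete inhibition of growth.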

What was measured:
Test in all cases: NCI anticancer screen, dose series, 48 h
[1] = system: OVCAR-5 ovarian
[2] = system: HCT-116 colon
[3] = system: T-47D breast
[4] = system: K-562 leukemia
[5] = system: UO-31 renal
[6] = system: RPMI-8226 leukemia
[7] = system: SF-268 CNS
[8] = system: ACHN renal
[9] = system: NCI-H522 lung
[10] = system: LOX IMVI melanoma
[11] = system: OVCAR-8 ovarian
[12] = system: A498 renal
[13] = system: NCI-H23 lung
[14] = system: HOP-92 NSCLC
[15] = system: SK-OV-3 ovarian
[16] = system: HL-60(TB) leukemia
[17] = system: SW-620 colon
[18] = system: OVCAR-4 ovarian
[19] = system: SNB-75 CNS
[20] = system: MDA-MB-231 breast
[21] = system: M14 melanoma
[22] = system: HT29 colon
[23] = system: UACC-62 melanoma
[24] = system: DU-145 prostate
[25] = system: SR leukemia
[26] = system: COLO 205 colon
[27] = system: HCT-15 colon
[28] = system: PC-3 prostate
[29] = system: SK-MEL-5 melanoma
[30] = system: IGROV1 ovarian
[31] = system: UACC-257 melanoma
[32] = system: NCI-H226 lung
[33] = system: MDA-MB-435
[34] = system: NCI-H460 lung
[35] = system: HCC-2998 colon
[36] = system: U251 CNS
[37] = system: EKVX NSCLC
[38] = system: OVCAR-3 ovarian
[39] = system: CAKI-1 renal
[40] = system: A549 NSCLC
[41] = system: SF-539 CNS
[42] = system: CCRF-CEM leukemia
[43] = system: MDA-MB-468 breast
[44] = system: HS 578T breast
[45] = system: MOLT-4 leukemia
[46] = system: MCF7 breast
[47] = system: MALME-3M melanoma
[48] = system: HOP-62 NSCLC
[49] = system: SN12C renal
[50] = system: BT-549 breast
[51] = system: 786-0 renal
[52] = system: SK-MEL-2 melanoma
[53] = system: SK-MEL-28 melanoma
[54] = system: TK-10 renal
[55] = system: SNB-19 CNS
[56] = system: RXF 393 renal
[57] = system: SF-295 CNS
[58] = system: KM12 colon

How did the GI50 [1] turn out when `O=C(c1ccc(Cl)cc1)C1[C@H](c2ccccc2Br)[C@@H](c2ccccc2)NC12C(=O)Nc1ccccc12` (stereo partly specified) was run?
Its GI50 is 6.34 µM.

What about the TGI [1] of the same compound?
The TGI was 29.7 µM.

And the GI50 [2]?
Its GI50 is 2.15 µM.

And the TGI [2]?
The TGI was 9.06 µM.

What about the GI50 [3] of the same compound?
The GI50 was 3.46 µM.

What about the TGI [3] of the same compound?
The TGI was 49 µM.

And the GI50 [4]?
Its GI50 is 2.04 µM.

And the TGI [4]?
The TGI was 28.3 µM.

And the GI50 [5]?
Its GI50 is 2.49 µM.

What about the TGI [5] of the same compound?
The TGI was 29.3 µM.

What about the GI50 [6] of the same compound?
The GI50 was 5.43 µM.

And the TGI [6]?
Its TGI is 32.6 µM.

And the GI50 [7]?
The GI50 was 2.92 µM.

What about the TGI [7] of the same compound?
The TGI was 40.2 µM.

What about the GI50 [8] of the same compound?
The GI50 was 6.01 µM.

What about the TGI [8] of the same compound?
Its TGI is 44.4 µM.

And the GI50 [9]?
The GI50 was 1.3 µM.

And the TGI [9]?
The TGI was 5.72 µM.

What about the GI50 [10] of the same compound?
The GI50 was 1.99 µM.

What about the TGI [10] of the same compound?
Its TGI is 8.86 µM.

And the GI50 [11]?
The GI50 was 6.72 µM.

What about the TGI [11] of the same compound?
Its TGI is 19.9 µM.

And the GI50 [12]?
The GI50 was 8.75 µM.

And the TGI [12]?
Its TGI is 21.6 µM.

What about the GI50 [13] of the same compound?
Its GI50 is 5.78 µM.

What about the TGI [13] of the same compound?
The TGI was 17.3 µM.

And the GI50 [14]?
Its GI50 is 2.06 µM.

And the TGI [14]?
The TGI was 14.5 µM.

And the GI50 [15]?
Its GI50 is 3.87 µM.

And the TGI [15]?
Its TGI is 37 µM.

And the GI50 [16]?
The GI50 was 1.92 µM.

And the TGI [16]?
Its TGI is 19.1 µM.

What about the GI50 [17] of the same compound?
Its GI50 is 3.43 µM.

What about the TGI [17] of the same compound?
The TGI was 33.9 µM.

What about the GI50 [18] of the same compound?
The GI50 was 7.11 µM.

And the TGI [18]?
Its TGI is greater than 56 µM.

What about the GI50 [19] of the same compound?
Its GI50 is 0.765 µM.

What about the TGI [19] of the same compound?
Its TGI is 27.9 µM.

What about the GI50 [20] of the same compound?
The GI50 was 1.72 µM.

And the TGI [20]?
The TGI was 7.13 µM.

What about the GI50 [21] of the same compound?
Its GI50 is 4.86 µM.

What about the TGI [21] of the same compound?
The TGI was 13.7 µM.

And the GI50 [22]?
Its GI50 is 2.46 µM.

What about the TGI [22] of the same compound?
Its TGI is 9.82 µM.

What about the GI50 [23] of the same compound?
The GI50 was 2.11 µM.

And the TGI [23]?
The TGI was 8.87 µM.

What about the GI50 [24] of the same compound?
The GI50 was 2.66 µM.

What about the TGI [24] of the same compound?
Its TGI is 16.4 µM.

And the GI50 [25]?
Its GI50 is 2 µM.

And the TGI [25]?
Its TGI is 14 µM.

And the GI50 [26]?
The GI50 was 7.71 µM.

What about the TGI [26] of the same compound?
Its TGI is 15.6 µM.

What about the GI50 [27] of the same compound?
The GI50 was 4.03 µM.

What about the TGI [27] of the same compound?
Its TGI is greater than 56 µM.

And the GI50 [28]?
The GI50 was 2.03 µM.

What about the TGI [28] of the same compound?
The TGI was 18.6 µM.

And the GI50 [29]?
Its GI50 is 2.42 µM.

And the TGI [29]?
Its TGI is 9.07 µM.

And the GI50 [30]?
The GI50 was 5.92 µM.

What about the TGI [30] of the same compound?
Its TGI is 26.1 µM.

What about the GI50 [31] of the same compound?
Its GI50 is 4.84 µM.

And the TGI [31]?
The TGI was 20.7 µM.

And the GI50 [32]?
The GI50 was 3.85 µM.

And the TGI [32]?
Its TGI is 13.6 µM.

And the GI50 [33]?
The GI50 was 2.58 µM.

And the TGI [33]?
The TGI was 10.8 µM.

And the GI50 [34]?
The GI50 was 2.3 µM.

What about the TGI [34] of the same compound?
Its TGI is 11.2 µM.

What about the GI50 [35] of the same compound?
The GI50 was 6.32 µM.

And the TGI [35]?
The TGI was 17.8 µM.

And the GI50 [36]?
Its GI50 is 3.16 µM.

And the TGI [36]?
Its TGI is 16 µM.

And the GI50 [37]?
The GI50 was 6.22 µM.

And the TGI [37]?
The TGI was greater than 56 µM.

What about the GI50 [38] of the same compound?
Its GI50 is 2.39 µM.

What about the TGI [38] of the same compound?
The TGI was 14 µM.

What about the GI50 [39] of the same compound?
The GI50 was 1.67 µM.

What about the TGI [39] of the same compound?
Its TGI is greater than 56 µM.

And the GI50 [40]?
The GI50 was 2.71 µM.

What about the TGI [40] of the same compound?
The TGI was 25 µM.

What about the GI50 [41] of the same compound?
Its GI50 is 7.14 µM.

What about the TGI [41] of the same compound?
The TGI was 15.7 µM.

What about the GI50 [42] of the same compound?
Its GI50 is 3.27 µM.

And the TGI [42]?
The TGI was 29.8 µM.

And the GI50 [43]?
Its GI50 is 1.11 µM.

And the TGI [43]?
The TGI was 3.33 µM.

What about the GI50 [44] of the same compound?
Its GI50 is 2.51 µM.

And the TGI [44]?
Its TGI is 15.6 µM.

What about the GI50 [45] of the same compound?
The GI50 was 2.06 µM.

And the TGI [45]?
Its TGI is 18.5 µM.

What about the GI50 [46] of the same compound?
Its GI50 is 1.81 µM.

And the TGI [46]?
Its TGI is greater than 56 µM.

And the GI50 [47]?
The GI50 was 6.46 µM.

What about the TGI [47] of the same compound?
The TGI was 14.5 µM.

And the GI50 [48]?
The GI50 was 6.54 µM.

What about the TGI [48] of the same compound?
Its TGI is 16.5 µM.

And the GI50 [49]?
Its GI50 is 2.74 µM.

What about the TGI [49] of the same compound?
The TGI was 10 µM.

What about the GI50 [50] of the same compound?
The GI50 was 2.4 µM.

What about the TGI [50] of the same compound?
The TGI was 10.5 µM.

And the GI50 [51]?
Its GI50 is 7.3 µM.

What about the TGI [51] of the same compound?
Its TGI is 21.9 µM.

What about the GI50 [52] of the same compound?
The GI50 was 4.44 µM.

What about the TGI [52] of the same compound?
Its TGI is 11.9 µM.

What about the GI50 [53] of the same compound?
Its GI50 is 7.44 µM.

And the TGI [53]?
The TGI was 16.3 µM.

What about the GI50 [54] of the same compound?
The GI50 was 9.48 µM.

What about the TGI [54] of the same compound?
The TGI was 40.7 µM.

And the GI50 [55]?
The GI50 was 10.8 µM.

What about the TGI [55] of the same compound?
The TGI was greater than 56 µM.

And the GI50 [56]?
Its GI50 is 1.77 µM.

And the TGI [56]?
Its TGI is 7.57 µM.

And the GI50 [57]?
The GI50 was 3.79 µM.

And the TGI [57]?
The TGI was 15.2 µM.

And the GI50 [58]?
The GI50 was 7.5 µM.

And the TGI [58]?
The TGI was 25.2 µM.
